Like-named read-outs stand apart in the source and are kept apart here. One block for each compound: values may come before it.
Tests used:
5-HT2B [1] = settings: cited from earlier work
5-HT2B [2] = target: 5-HT2B; set-up: method as in earlier work; settings: Figure 1; ref 21 (1), ChEMBL (2, 3), ref 24 (5), ref 26 (7); cited from earlier work
human 5-HT1B receptor = target: T1, human 5-HT1B receptor (Homo sapiens, UniProt P28222); assay: Competition binding in human 5-HT1B receptor ([3H]-GR125743, Hela-5-HT1B membranes); settings: for inhibition at 10 µM: 10 µM compound, mean ± SD of three independent assays with duplicate measurements, read-out: 5-HT1B (%) percentage of inhibition; for Ki: measured if inhibition at 10 µM exceeded 50%, mean ± SD of three assays
T1 construct: expressed in transfected cells; host or cells: HeLa (Hela-5-HT1B cell line, Lot A001/14-11-2011)
T1 sequence (P28222 whole entry): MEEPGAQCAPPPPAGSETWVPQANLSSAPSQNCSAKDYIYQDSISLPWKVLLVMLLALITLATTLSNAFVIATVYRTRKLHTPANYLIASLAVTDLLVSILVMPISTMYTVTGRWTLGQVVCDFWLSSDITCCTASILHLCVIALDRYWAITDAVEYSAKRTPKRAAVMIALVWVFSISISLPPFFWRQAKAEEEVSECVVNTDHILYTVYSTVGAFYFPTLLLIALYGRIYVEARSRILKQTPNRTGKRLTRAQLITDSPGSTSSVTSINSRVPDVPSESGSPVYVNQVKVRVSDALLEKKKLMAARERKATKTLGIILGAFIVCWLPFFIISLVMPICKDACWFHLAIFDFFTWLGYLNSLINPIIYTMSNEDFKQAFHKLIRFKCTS

5-HT1B = settings: Figure 1; ref 21 (compound 1), ChEMBL (compounds 2, 3); cited from earlier work
5-HT2B [3] = tested on: 5-HT2B; set-up: method as in PMID 8709108; settings: Figure 1; cited from earlier work
human 5-HT2B receptor = human 5-HT2B receptor (Homo sapiens, UniProt P41595); assay: Competition binding in human 5-HT2B receptor ([3H]-LSD, CHO-5-HT2B membranes); settings: for 5-HT2BR affinity range in words: conclusions; for inhibition at 10 µM: read-out: 5-HT2B (%) percentage of inhibition
Sequence of human 5-HT2B receptor (P41595 whole entry): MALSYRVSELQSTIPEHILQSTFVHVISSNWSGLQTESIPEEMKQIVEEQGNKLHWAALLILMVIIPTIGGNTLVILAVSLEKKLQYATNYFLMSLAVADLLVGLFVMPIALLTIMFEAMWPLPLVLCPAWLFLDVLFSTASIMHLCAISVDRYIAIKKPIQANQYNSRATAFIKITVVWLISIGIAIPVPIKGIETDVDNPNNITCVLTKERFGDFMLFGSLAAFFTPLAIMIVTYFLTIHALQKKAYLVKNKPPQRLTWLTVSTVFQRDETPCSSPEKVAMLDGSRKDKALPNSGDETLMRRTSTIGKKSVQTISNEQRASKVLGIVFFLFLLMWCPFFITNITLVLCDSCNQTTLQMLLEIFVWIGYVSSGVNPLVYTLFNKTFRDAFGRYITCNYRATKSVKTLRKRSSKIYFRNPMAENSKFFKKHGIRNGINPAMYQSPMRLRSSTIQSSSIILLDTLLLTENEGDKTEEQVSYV

human serotonin 5-HT1AR = target: T2, human serotonin 5-HT1AR (Homo sapiens, UniProt P08908); assay: Competition binding in human 5-HT1A receptor ([3H]-8-OH-DPAT, HEK293 membranes); settings: 5-HT panel screening; mean ± SD
T2 construct: expressed in transfected cells
T2 sequence (P08908 1-422): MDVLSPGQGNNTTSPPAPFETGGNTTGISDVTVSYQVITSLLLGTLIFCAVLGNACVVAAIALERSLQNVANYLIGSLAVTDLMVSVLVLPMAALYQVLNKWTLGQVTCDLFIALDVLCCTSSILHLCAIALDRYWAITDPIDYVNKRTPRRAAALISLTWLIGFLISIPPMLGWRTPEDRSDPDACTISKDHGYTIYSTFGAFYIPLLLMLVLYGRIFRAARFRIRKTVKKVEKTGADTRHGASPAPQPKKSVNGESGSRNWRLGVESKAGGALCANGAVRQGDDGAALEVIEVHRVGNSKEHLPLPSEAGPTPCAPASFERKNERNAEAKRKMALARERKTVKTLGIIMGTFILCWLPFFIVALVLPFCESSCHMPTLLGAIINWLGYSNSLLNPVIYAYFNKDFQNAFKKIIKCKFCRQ

[4] = target: T3, human serotonin 5-HT7b receptor (Homo sapiens, UniProt P34969); assay: Competition binding in human 5-HT7 receptor ([3H]-5-CT, HEK293 membranes); settings: 5-HT panel screening; mean ± SD
T3 construct: expressed in transfected cells
T3 sequence (P34969 1-432): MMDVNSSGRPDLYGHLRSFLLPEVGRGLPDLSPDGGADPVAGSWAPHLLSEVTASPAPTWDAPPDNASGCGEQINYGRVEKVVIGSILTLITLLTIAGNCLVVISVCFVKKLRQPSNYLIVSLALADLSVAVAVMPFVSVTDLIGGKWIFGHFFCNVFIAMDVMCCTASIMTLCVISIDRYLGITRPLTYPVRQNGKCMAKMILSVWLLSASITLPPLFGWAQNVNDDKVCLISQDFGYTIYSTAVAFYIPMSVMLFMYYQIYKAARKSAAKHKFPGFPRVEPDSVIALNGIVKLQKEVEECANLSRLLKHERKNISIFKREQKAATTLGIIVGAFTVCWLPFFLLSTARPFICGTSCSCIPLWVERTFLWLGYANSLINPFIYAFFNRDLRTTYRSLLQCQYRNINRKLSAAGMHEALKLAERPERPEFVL

[5] = target: T4, human serotonin 5-HT2A receptor (Homo sapiens, UniProt P28223); assay: Competition binding in human 5-HT2A receptor ([3H]-Ketanserin, HEK293 membranes); settings: 5-HT panel screening; mean ± SD
T4 construct: expressed in transfected cells
T4 sequence (P28223 whole entry): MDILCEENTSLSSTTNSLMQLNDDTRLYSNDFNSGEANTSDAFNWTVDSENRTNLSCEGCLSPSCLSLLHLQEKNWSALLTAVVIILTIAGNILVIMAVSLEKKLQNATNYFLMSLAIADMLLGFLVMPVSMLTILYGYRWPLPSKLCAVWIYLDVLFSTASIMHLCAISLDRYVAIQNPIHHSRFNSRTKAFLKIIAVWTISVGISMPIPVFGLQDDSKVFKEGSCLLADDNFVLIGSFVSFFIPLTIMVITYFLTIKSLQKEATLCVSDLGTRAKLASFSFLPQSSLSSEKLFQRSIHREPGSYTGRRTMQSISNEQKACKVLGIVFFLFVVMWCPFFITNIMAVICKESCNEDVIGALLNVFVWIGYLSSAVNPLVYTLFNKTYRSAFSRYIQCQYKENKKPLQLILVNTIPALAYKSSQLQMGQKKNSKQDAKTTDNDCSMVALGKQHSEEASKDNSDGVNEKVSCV

[6] = target: T5, human serotonin 5-HT6 receptor (Homo sapiens, UniProt P50406); assay: Competition binding in human 5-HT6 receptor ([3H]-LSD, HEK293 membranes); settings: 5-HT panel screening; mean ± SD
T5 construct: expressed in transfected cells
T5 sequence (P50406 whole entry): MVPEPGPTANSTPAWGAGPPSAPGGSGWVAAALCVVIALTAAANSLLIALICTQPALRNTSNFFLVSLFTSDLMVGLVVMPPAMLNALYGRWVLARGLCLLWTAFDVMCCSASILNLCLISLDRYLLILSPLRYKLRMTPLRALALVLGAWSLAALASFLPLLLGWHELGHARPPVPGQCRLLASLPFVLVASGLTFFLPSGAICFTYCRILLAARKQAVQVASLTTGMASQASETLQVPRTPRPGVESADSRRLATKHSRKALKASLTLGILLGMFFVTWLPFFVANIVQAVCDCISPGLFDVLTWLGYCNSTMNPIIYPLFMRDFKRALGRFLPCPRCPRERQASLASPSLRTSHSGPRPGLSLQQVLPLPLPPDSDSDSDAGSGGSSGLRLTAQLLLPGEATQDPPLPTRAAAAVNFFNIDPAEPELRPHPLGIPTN

SMILES: O=C(c1ccc(-c2ccccc2)cc1)N1CCC(c2nc3ccccc3[nH]2)CC1 [Compound 17]
IC50 (5-HT2B [1]; Figure 6, closest literature analogue, read-out: IC50 (5-HT2BR)): 2.4 nM

SMILES: Cc1cc([N+](=O)[O-])c(N2CCN(Cc3ccccc3)CC2)cc1N [Compound 5, EGIS-7625]
pKi (5-HT2B) (5-HT2B [2]): 9.0

Kd (human 5-HT1B receptor; radioligand used at […], read-out: KD of radioligand at 5-HT1BR): 0.74 nM
SMILES: COc1ccc(NC(=O)c2ccc(-c3ccncc3)c(C)c2)cc1N1CCN(C)CC1 [[^3H]-GR125743, reference compound]

SMILES: CCOC(=O)c1cccc(NC2=NC(N)=NC3(CCCCC3)N2)c1 [Compound 1]
pKi (5-HT1B) (5-HT1B): > 5
pKi (5-HT2B) (5-HT2B [2]): 8.14

SMILES: COc1ccc(CC2NCCc3c2[nH]c2ccccc32)cc1OC (centres unmarked) [Compound 6, LY-23728]
pKB (5-HT2B) (5-HT2B [3]): 9.17

SMILES: CC(C)c1cc(-c2ccc(F)c3ccccc23)nc(N)n1 [Compound 4, RS-127445]
IC50 (5-HT2B [1]; Figure 1, read-out: IC50 (5-HT2B)): 0.7 nM

Ki (human 5-HT2B receptor): 2610 ± 422 nM
5-HT2BR affinity range in words (human 5-HT2B receptor): low micromolar
inhibition at 10 µM (human 5-HT1B receptor): 7 ± 4%
SMILES: Cn1c(CN2CCCCC2)nnc1C1CCCN(CCc2ccccc2)C1 (centres unmarked) [Compound 10]

inhibition at 10 µM (human 5-HT2B receptor): 40 ± 3%
inhibition at 10 µM (human 5-HT1B receptor): 12 ± 4%
SMILES: Cc1cccc2[nH]c(C3CCN(C(=O)c4cnn[nH]4)CC3)nc12 [Compound 11]

inhibition at 10 µM (human 5-HT2B receptor): 34 ± 4%
inhibition at 10 µM (human 5-HT1B receptor): 19 ± 3%
SMILES: Cc1ncc(C(=O)N2CCC(c3nccn3Cc3ccccc3)CC2)c(=O)[nH]1 [Compound 13]

SMILES: CCCCN1CCC(COC(=O)c2cc(F)c(N)c3c2OCCO3)CC1 [Compound 3]
pKi (5-HT1B) (5-HT1B): > 5
pKi (5-HT2B) (5-HT2B [2]): 6.78

SMILES: Cc1c(C(=O)N2CCC(c3ncc[nH]3)CC2)n[nH]c1-c1ccc(Cl)cc1 [Compound 8]
Ki (human serotonin 5-HT1AR): > 20000 nM
Ki [4]: > 20000 nM
Ki [5]: > 20000 nM
Ki (human 5-HT2B receptor): 0.3 ± 0.07 nM
5-HT2BR affinity range in words (human 5-HT2B receptor): subnanomolar
selectivity for 5-HT2BR versus 5-HT1BR (human 5-HT2B receptor; ratio of 5-HT1BR and 5-HT2BR affinity): ten thousand-fold
Ki (human 5-HT1B receptor): 2930 ± 321 nM
Ki [6]: 13200 ± 1500 nM

inhibition at 10 µM (human 5-HT2B receptor): 24 ± 4%
inhibition at 10 µM (human 5-HT1B receptor): 1 ± 1%
SMILES: CCc1ccc(NC(=O)c2ccc(-c3noc(C4CCN(C(=O)c5ccc(F)cc5)CC4)n3)cc2)cc1 [Compound 16]

SMILES: Cc1c(-c2ccccc2)sc(NC(=O)Cn2c(=O)cnc3ccccc32)c1C(=O)N1CCCCC1 [Compound 9]
Ki (human serotonin 5-HT1AR): > 20000 nM
Ki [4]: > 20000 nM
Ki [5]: > 20000 nM
Ki (human 5-HT2B receptor): 235 ± 15.9 nM
5-HT2BR affinity range in words (human 5-HT2B receptor): submicromolar
Ki (human 5-HT1B receptor): 2100 ± 622 nM
Ki [6]: 7500 ± 900 nM

inhibition at 10 µM (human 5-HT2B receptor): 36 ± 4%
inhibition at 10 µM (human 5-HT1B receptor): 7 ± 1%
SMILES: COc1cccc(-c2n[nH]cc2C(=O)N2CCCC(c3cc(O)ncn3)C2)c1 (centres unmarked) [Compound 12]

inhibition at 10 µM (human 5-HT2B receptor): 34 ± 4%
inhibition at 10 µM (human 5-HT1B receptor): 26 ± 4%
SMILES: CCOC(=O)c1c(CN2CCCCC2)n(C)c2c1cc(OC(C)=O)c1c2c(-c2ccccc2)nn1-c1ccccc1 [Compound 14]

inhibition at 10 µM (human 5-HT2B receptor): 31 ± 4%
inhibition at 10 µM (human 5-HT1B receptor): 28 ± 3%
SMILES: COc1ccc2c(c1)NC1(CCN(C(=O)c3ccc(C)c(C)c3)CC1)c1cccn1-2 [Compound 15]

SMILES: COc1cc(N)c(Cl)cc1C(=O)NC1CCN(CCCOc2ccc(F)cc2)CC1OC (centres unmarked) [Compound 2]
pKi (5-HT1B) (5-HT1B): > 5.3

SMILES: Cn1ccc2cc(NC(=O)Nc3cccnc3)ccc21 [Compound 7, SB-200646A]
pKi (5-HT2B) (5-HT2B [2]): 7.5
